Patent US9802941B2, “Compounds and methods for inhibiting histone demethylases” (Gilead Sciences, Inc., priority 2014, dated 2017)
Where two headings read alike, the source gives them in different places.

Experiments:
Format in all cases: biochemical
[1] = biological target: T1, KDM4C (JMJD2C) (Homo sapiens, UniProt Q9H3R0); test: Histone lysine demethylase AlphaLISA assay, KDM4C
T1 construct: KDM4C; BRIC, Denmark; 1-349; E. coli; host or cells: E. coli
T1 sequence (Q9H3R0 1-349): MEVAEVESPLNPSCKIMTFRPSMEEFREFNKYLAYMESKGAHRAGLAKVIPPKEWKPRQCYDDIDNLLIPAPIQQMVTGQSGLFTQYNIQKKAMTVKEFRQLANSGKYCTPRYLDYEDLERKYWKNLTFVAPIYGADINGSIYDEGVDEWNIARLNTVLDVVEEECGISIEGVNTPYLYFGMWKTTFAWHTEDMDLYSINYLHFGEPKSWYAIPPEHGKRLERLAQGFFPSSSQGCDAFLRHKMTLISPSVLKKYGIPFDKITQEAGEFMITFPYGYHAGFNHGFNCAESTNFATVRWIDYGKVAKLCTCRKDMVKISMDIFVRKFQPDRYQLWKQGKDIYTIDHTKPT
Procedure, shortened: (§1)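 Compounds preincubated 10 min with each demethylase in Hepes buffer (pH 7.4-8.0) containing Tween-20, 0.1% BSA and 5 μM Fe(II); substrate then added, room-temperature reaction. Read-out by AlphaLISA acceptor and streptavidin donor beads after incubation in the dark.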

[2] = biological target: T2, KDM2B (FBXL10) (Homo sapiens, UniProt Q8NHM5); test: Histone lysine demethylase AlphaLISA assay, KDM2B
T2 construct: KDM2B; BPS,; 1-650; Bac; purchased BPS Bioscience, US; host or cells: baculovirus system
T2 sequence (Q8NHM5 1-650): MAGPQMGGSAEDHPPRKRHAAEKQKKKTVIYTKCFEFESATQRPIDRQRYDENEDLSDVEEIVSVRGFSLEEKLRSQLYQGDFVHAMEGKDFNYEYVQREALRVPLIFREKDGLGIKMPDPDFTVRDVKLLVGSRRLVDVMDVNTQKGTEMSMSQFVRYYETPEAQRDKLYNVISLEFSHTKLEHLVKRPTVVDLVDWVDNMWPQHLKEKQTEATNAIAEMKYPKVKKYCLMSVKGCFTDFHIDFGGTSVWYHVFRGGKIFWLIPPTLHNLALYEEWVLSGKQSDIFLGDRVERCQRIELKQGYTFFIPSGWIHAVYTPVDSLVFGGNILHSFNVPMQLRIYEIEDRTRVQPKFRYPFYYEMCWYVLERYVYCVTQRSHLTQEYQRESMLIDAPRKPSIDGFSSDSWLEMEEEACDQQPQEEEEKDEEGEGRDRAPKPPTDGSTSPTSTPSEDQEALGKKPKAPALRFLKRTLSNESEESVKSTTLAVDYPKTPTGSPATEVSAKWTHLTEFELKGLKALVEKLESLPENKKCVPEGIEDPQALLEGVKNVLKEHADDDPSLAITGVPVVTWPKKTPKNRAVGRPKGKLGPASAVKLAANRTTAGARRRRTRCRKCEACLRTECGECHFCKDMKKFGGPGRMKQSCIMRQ
Procedure, shortened: as §1

[3] = biological target: T3, PHF8 (KDM7) (Homo sapiens, UniProt Q9UPP1); test: Histone lysine demethylase AlphaLISA assay, PHF8
T3 construct: KDM7 (PHF8); BRIC; 1-1322; Bac
Procedure, shortened: as §1

[4] = biological target: T4, KDM6A (UTX) (Homo sapiens, UniProt O15550); test: Histone lysine demethylase AlphaLISA assay, KDM6A
T4 construct: KDM6A (UTX); BRIC; 919-1401; E. coli; host or cells: E. coli
Experimental: The compounds of the application, or a pharmaceutically acceptable salt, or solvate, or prodrug thereof, are tested in an in vitro AlphaLISA assay. Enzymes are dissolved in enzyme buffer and incubated before they are added to DMSO solutions of compounds of the application, or a pharmaceutically acceptable salt, or solvate, or prodrug thereof, in enzyme buffer. The reaction mixture is then incubated for an additional period of time before substrate solution is added and then the resulting mixture again incubated. Acceptor beads and suspended Epigenetic Buffer from stock are added and the suspension is again incubated before a suspension of streptavidin donor beads in Epigenetic Buffer is added. After an additional period of incubation, the plates are read.
The ability of compounds of the application to inhibit the histone lysine demethylase activity in vitro of different enzymes was determined.
The reaction mixture was incubated for another 10 minutes before 5 μL of substrate solution was added and the resulting mixture was then incubated at room temperature. […] After incubation at room temperature in the dark, the plates were read.
Enzyme Buffer: 50 mM Hepes (pH 7.4-8.0), 0.003-0.01% Tween-20, 0.1% BSA; 5 μM (NH4)2Fe(SO4)2.

[5] = biological target: T5, KDM5B (PLU-1) (Homo sapiens, UniProt Q9UGL1); test: Histone lysine demethylase AlphaLISA assay, KDM5B
T5 construct: BRIC; 1-809; E. coli; host or cells: E. coli
T5 sequence (Q9UGL1 1-809): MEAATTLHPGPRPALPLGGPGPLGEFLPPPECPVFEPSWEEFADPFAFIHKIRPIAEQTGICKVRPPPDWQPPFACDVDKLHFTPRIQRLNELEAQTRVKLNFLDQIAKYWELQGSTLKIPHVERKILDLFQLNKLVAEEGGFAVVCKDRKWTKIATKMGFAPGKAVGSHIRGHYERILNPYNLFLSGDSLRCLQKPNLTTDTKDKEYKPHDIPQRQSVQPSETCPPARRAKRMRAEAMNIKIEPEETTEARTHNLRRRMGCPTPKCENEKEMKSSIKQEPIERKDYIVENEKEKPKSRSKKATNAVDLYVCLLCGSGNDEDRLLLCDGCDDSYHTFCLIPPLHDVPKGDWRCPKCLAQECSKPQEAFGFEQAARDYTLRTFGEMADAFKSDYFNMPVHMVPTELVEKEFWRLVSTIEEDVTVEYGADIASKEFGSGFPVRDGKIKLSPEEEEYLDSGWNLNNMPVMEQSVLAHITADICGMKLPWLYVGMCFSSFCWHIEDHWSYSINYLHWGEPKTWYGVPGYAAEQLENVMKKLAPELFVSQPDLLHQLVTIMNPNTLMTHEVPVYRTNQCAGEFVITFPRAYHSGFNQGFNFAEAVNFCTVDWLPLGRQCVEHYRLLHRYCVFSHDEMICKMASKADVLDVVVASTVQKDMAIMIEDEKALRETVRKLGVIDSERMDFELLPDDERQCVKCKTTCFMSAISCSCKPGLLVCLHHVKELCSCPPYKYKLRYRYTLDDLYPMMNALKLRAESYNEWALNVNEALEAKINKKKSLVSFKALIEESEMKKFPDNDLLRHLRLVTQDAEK
Procedure, shortened: as §1

[6] = AlphaLISA assay, read-out: HDME Inhibition KDM4C (IC50)
[7] = AlphaLISA, in vitro, read-out: HDME Inhibition KDM4C
[8] = AlphaLISA, in vitro, read-out: HDME Inhibition KDM2B
[9] = AlphaLISA, in vitro, read-out: HDME Inhibition PHF8
[10] = AlphaLISA assay, read-out: HDME Inhibition KDM6A (IC50)
[11] = AlphaLISA, in vitro, read-out: HDME Inhibition KDM6A
[12] = AlphaLISA assay, read-out: HDME Inhibition KDM5B (IC50)
[13] = AlphaLISA, in vitro, read-out: HDME Inhibition KDM5B
[14] = AlphaLISA assay, read-out: HDME Inhibition PHF8 (IC50)
[15] = AlphaLISA assay, read-out: HDME Inhibition KDM2B (IC50)

T4 sequence (O15550 919-1401): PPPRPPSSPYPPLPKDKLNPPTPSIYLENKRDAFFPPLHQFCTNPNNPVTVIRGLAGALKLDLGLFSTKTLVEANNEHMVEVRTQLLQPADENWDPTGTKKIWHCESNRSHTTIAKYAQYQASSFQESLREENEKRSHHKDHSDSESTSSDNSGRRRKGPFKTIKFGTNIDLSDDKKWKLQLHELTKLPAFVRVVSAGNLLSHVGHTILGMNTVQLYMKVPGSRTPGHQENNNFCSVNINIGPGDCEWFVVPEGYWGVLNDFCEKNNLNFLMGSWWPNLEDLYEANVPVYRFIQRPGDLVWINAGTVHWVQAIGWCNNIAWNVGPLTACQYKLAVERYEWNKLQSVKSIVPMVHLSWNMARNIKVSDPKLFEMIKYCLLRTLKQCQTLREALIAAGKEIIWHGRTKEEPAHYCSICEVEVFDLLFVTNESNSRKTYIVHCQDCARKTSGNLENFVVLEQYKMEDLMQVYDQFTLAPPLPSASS
T3 sequence (Q9UPP1 37-440 limits assumed): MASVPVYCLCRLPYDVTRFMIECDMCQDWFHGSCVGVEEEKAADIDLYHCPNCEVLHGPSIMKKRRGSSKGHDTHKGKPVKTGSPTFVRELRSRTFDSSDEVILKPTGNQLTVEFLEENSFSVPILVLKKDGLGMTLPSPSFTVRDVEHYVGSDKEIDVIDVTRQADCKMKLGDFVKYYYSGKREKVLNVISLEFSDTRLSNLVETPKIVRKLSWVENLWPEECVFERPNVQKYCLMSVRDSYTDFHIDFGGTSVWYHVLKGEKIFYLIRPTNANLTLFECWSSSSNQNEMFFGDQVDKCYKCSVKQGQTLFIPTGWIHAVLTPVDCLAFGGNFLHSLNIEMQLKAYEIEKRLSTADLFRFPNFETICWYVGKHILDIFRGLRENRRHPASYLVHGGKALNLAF

Cc1cc(C(=O)O)cc(CNCc2nnc(Cc3cccs3)n2Cc2ccc(F)cc2)n1 [Compound 40, 2-{[({4-[(4-fluorophenyl)methyl]-5-(thiophen-2-ylmethyl)-4H-1,2,4-triazol-3-yl}methyl)amino]methyl}-6-methylpyridine-4-carboxylic acid]
IC50 [1, 6]: > 10 µM | IC50 [1, 7]: > 10 µM | IC50 [2, 8]: 0.599 µM | IC50 [3, 9]: 1.53 µM | IC50 [4, 10]: > 10 µM | IC50 [4, 11]: > 10 µM | IC50 [5, 12]: > 10 µM | IC50 [5, 13]: > 10 µM

CCCCc1cccnc1CCNCc1cc(C(=O)O)cc(C)n1 [Compound 15, 2-({[2-(3-butylpyridin-2-yl)ethyl]amino}methyl)-6-methylpyridine-4-carboxylic acid]
IC50 [1, 6]: > 10 µM | IC50 [1, 7]: > 10 µM | IC50 [2, 8]: 5.68 µM | IC50 [3, 14]: > 6 µM | IC50 [3, 9]: > 6 µM | IC50 [4, 10]: > 10 µM | IC50 [4, 11]: > 10 µM | IC50 [5, 12]: > 10 µM | IC50 [5, 13]: > 10 µM

CCC(C)c1cnc(CNCc2cc(C(=O)O)cc(C)n2)n1Cc1ccc(F)cc1 (stereo not drawn) [Compound 9, 2-[({[5-(butan-2-yl)-1-[(4-fluorophenyl)methyl]-1H-imidazole-2-yl]methyl}amino)methyl]-6-methyl-pyridine-4-carboxylic acid]
IC50 [1, 7]: 0.299 µM | IC50 [2, 15]: > 10 µM | IC50 [2, 8]: > 10 µM | IC50 [3, 14]: > 10 µM | IC50 [3, 9]: > 10 µM | IC50 [4, 10]: > 10 µM | IC50 [4, 11]: > 10 µM | IC50 [5]: 0.714 µM

CCCCCCc1cccnc1CCNCc1cc(C(=O)O)cc(C)n1 [Compound 14, 2-({[2-(3-hexylpyridin-2-yl)ethyl]amino}methyl)-6-methylpyridine-4-carboxylic acid]
IC50 [1, 6]: > 10 µM | IC50 [1, 7]: > 10 µM | IC50 [2, 8]: 3.23 µM | IC50 [3, 9]: 5.6 µM | IC50 [4, 10]: > 10 µM | IC50 [4, 11]: > 10 µM | IC50 [5, 12]: > 10 µM | IC50 [5, 13]: > 10 µM

Cc1cc(C(=O)O)cc(CNCCc2ccccn2)n1 [Compound 3, 2-methyl-6-({[2-(pyridin-2-yl)ethyl]amino}methyl)pyridine-4-carboxylic acid]
IC50 [1, 6]: > 10 µM | IC50 [1, 7]: > 10 µM | IC50 [2, 8]: 4.65 µM | IC50 [3, 14]: > 10 µM | IC50 [3, 9]: > 10 µM | IC50 [4, 10]: > 10 µM | IC50 [4, 11]: > 10 µM | IC50 [5, 12]: > 10 µM | IC50 [5, 13]: > 10 µM

CCCCCc1cccnc1CCNCc1cc(C(=O)O)cc(C)n1 [Compound 16, 2-methyl-6-({[2-(3-pentylpyridin-2-yl)ethyl]amino}methyl)pyridine-4-carboxylic acid]
IC50 [1, 6]: > 10 µM | IC50 [1, 7]: > 10 µM | IC50 [2, 15]: > 6.8 µM | IC50 [2, 8]: > 6.8 µM | IC50 [3, 9]: 3.49 µM | IC50 [4, 10]: > 9 µM | IC50 [4, 11]: > 9 µM | IC50 [5, 12]: > 10 µM | IC50 [5, 13]: > 10 µM
